In patent US20250114345A1, “COMPOUNDS AND COMPOSITIONS AS CBP/P300 DEGRADERS AND USES THEREOF” (Oncopia Therapeutics, Inc. d/b/a/ SK Life Science Labs, priority 2023, published 2025):

Target: T1, p300 (Homo sapiens, UniProt Q09472)
T1 construct: host or cells: A549 P300 HiBit cells
Experiment: P300 degradation, HiBit technology in A549 P300 HiBit cells (2 h)
Assay type: cell-based
Conditions: 2 hrs post treatment; for Dmax: A549, A549 P300 HiBit cells; for DC50: A549 P300 HiBit cells
In short: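 Luminescence after lytic HiBiT detection (10 min, room temperature) gave degradation potency and Dmax. Before that, knock-in A549 cells grown overnight in F-12K/10% HI-FBS were exposed to serially diluted compound at 37 °C, 5% CO2 for the assay time stated.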

T1 sequence (Q09472 whole entry): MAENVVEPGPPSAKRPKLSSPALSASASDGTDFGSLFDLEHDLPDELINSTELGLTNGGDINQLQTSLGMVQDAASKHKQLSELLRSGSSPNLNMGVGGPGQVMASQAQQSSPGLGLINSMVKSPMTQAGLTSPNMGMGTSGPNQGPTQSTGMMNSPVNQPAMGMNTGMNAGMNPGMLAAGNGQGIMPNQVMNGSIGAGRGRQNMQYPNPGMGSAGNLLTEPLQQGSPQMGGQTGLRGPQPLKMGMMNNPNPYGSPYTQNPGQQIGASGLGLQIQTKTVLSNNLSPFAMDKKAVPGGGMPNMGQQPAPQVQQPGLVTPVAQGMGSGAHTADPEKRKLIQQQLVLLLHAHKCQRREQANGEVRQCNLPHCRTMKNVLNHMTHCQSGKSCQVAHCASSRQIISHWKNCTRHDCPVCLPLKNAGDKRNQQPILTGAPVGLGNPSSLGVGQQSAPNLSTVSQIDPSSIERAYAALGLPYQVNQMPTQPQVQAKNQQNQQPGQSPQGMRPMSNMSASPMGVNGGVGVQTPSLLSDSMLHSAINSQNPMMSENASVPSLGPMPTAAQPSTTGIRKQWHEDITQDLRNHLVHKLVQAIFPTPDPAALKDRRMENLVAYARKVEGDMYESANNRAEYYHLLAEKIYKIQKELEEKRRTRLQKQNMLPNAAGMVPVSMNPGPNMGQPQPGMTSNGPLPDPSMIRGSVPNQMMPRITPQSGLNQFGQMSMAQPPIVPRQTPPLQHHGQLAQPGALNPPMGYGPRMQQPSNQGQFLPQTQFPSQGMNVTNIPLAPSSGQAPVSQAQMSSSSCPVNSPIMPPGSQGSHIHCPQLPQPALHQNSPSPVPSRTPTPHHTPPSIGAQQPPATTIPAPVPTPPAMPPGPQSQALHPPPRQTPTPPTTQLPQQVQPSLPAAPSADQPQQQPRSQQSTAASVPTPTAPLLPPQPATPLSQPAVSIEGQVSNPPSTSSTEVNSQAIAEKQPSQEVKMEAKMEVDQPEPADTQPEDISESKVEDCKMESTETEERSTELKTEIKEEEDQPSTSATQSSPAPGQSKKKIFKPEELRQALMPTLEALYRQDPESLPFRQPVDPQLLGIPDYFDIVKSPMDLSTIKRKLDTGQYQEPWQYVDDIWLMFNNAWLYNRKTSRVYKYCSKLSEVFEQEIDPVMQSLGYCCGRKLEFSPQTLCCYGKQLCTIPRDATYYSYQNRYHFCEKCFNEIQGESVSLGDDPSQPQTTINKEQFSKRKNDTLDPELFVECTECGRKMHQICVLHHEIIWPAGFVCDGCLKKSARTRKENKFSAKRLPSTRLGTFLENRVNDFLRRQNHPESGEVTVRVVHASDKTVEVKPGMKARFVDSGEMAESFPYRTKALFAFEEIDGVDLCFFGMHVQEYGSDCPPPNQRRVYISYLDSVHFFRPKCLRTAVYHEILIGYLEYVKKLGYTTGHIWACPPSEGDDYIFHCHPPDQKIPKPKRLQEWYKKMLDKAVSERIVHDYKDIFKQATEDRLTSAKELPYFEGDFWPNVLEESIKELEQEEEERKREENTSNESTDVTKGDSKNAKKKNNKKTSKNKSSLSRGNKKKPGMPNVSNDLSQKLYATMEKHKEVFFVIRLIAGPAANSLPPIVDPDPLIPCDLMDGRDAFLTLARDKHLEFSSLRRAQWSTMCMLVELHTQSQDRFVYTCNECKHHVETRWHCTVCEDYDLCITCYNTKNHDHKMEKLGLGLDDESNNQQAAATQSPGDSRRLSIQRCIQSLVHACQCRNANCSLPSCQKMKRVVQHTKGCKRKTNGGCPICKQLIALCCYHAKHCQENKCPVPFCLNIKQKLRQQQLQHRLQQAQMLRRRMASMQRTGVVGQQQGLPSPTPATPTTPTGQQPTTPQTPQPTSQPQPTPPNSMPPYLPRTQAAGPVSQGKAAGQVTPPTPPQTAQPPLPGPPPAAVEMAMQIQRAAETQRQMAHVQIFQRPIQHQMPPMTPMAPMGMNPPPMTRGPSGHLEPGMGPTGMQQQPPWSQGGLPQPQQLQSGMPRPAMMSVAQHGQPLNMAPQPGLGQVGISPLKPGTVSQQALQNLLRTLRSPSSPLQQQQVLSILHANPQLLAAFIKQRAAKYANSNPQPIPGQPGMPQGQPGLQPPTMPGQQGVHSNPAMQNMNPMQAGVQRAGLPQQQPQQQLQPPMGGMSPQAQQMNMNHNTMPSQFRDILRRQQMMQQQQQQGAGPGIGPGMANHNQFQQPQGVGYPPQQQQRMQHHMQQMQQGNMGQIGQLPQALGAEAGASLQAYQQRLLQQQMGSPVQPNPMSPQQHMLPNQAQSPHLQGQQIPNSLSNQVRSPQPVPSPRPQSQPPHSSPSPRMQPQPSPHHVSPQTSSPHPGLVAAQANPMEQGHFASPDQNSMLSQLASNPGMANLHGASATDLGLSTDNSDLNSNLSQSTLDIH

| SMILES | Dmax [%] | DC50 [nM] |
| --- | --- | --- |
| CCc1cc(N(C)c2ccc(-c3cnc(C(=O)NCC#Cc4cccc(NC5CCC(=O)NC5=O)c4)c(C)c3)c(Cl)c2)c2cc(C)c(=O)n(C)c2c1 (stereo not shown) [Example B11, 5-(2-Chloro-4-((7-ethyl-1,3-dimethyl-2-oxo-1,2-dihydroquinolin-5-yl)(methyl)amino)phenyl)-N-(3-(3-((2,6-dioxopiperidin-3-yl)amino)phenyl)prop-2-yn-1-yl)-3-methylpicolinamide] | > 80 | 10 to 99 |
| CC(C)c1cc(-c2cccc3cc(-c4ccc(C(=O)NCC#Cc5ccc6cnn(C7CCC(=O)NC7=O)c6n5)nc4)ncc23)cc2c1n(C)c(=O)n2C (stereo not shown) [Example A12, N-(3-(1-(2,6-Dioxopiperidin-3-yl)-1H-pyrazolo[3,4-b]pyridin-6-yl)prop-2-yn-1-yl)-5-(8-(7-isopropyl-1,3-dimethyl-2-oxo-2,3-dihydro-1H-benzo[d]imidazol-5-yl)isoquinolin-3-yl)picolinamide] | 20 to 39 | 10 to 99 |
| Cc1cc(-c2ccc(N(C)c3cc(C(C)C)c4c(c3)n(C)c(=O)n4C)cc2)cnc1C(=O)NCC#Cc1cccc(NC2CCC(=O)NC2=O)c1 (stereo not shown) [Example A43, N-(3-(3-((2,6-dioxopiperidin-3-yl)amino)phenyl)prop-2-yn-1-yl)-5-(4-((7-isopropyl-1,3-dimethyl-2-oxo-2,3-dihydro-1H-benzo [d]imidazol-5-yl) (methyl)amino)phenyl)-3-methylpicolinamide] | 60 to 79 | 100 to 999 |
| Cc1cc2c(N3CCOc4cc(-c5ccc(C(=O)NCC#Cc6ccc7occ(C8CCC(=O)NC8=O)c7c6)nc5)c(F)cc43)cc(F)cc2n(C)c1=O (stereo not shown) [Example B100, N-(3-(3-(2,6-dioxopiperidin-3-yl)benzofuran-5-yl)prop-2-yn-1-yl)-5-(6-fluoro-4-(7-fluoro-1,3-dimethyl-2-oxo-1,2-dihydroquinolin-5-yl)-3,4-dihydro-2H-benzo[b][1,4]oxazin-7-yl) picolinamide] | > 80 | 1 to 9.9 |
| CC(C)c1cc(-c2cccc3cc(-c4ccc(C(=O)NCC#Cc5cc6c(C7CCC(=O)NC7=O)coc6cc5C#N)nc4)ncc23)cc2c1n(C)c(=O)n2C (stereo not shown) [Example A240, N-(3-(6-cyano-3-(2,6-dioxopiperidin-3-yl)benzofuran-5-yl)prop-2-yn-1-yl)-5-(8-(7-isopropyl-1,3-dimethyl-2-oxo-2,3-dihydro-1H-benzo [d]imidazol-5-yl)isoquinolin-3-yl)picolinamide] | 40 to 59 | 10 to 99 |
| Cn1c(=O)n(C)c2cc(N3CCOc4nc(-c5ccc(C(=O)NCC#Cc6ccn7ncc(C8CCC(=O)NC8=O)c7c6)nc5)ncc43)ccc21 (stereo not shown) [Example A246, 5-(5-(1,3-dimethyl-2-oxo-2,3-dihydro-1H-benzo[d]imidazol-5-yl)-6,7-dihydro-5H-pyrimido[4,5-b][1,4]oxazin-2-yl)-N-(3-(3-(2,6-dioxopiperidin-3-yl)pyrazolo[1,5-a]pyridin-5-yl)prop-2-yn-1-yl)picolinamide] | 40 to 59 | 1 to 9.9 |
| CC(C)c1cc(N2CCCc3cc(-c4ccc(C(=O)NCc5ccc(-c6ccn(C7CCC(=O)NC7=O)n6)cc5)nc4)c(C(F)F)cc32)cc2c1n(C)c(=O)n2C (stereo not shown) [Example A37, 5-(7-(Difluoromethyl)-1-(7-isopropyl-1,3-dimethyl-2-oxo-2,3-dihydro-1H-benzo[d]imidazol-5-yl)-1,2,3,4-tetrahydroquinolin-6-yl)-N-(4-(1-(2,6-dioxopiperidin-3-yl)-1H-pyrazol-3-yl)benzyl)picolinamide] | < 20 | > 1000 |

Further lines, results first:

| Dmax [%] | DC50 [nM] | SMILES |
| --- | --- | --- |
| > 80 | 1 to 9.9 | CN1CCN(c2ccc3c(c2)n(C)c(=O)n3C)c2cc(C(F)(F)F)c(-c3ccc(C(=O)NCC#Cc4cc5c(C6CCC(=O)NC6=O)cccc5o4)nc3)cc21 (stereo not shown) [Example A242, 5-(1-(1,3-dimethyl-2-oxo-2,3-dihydro-1H-benzo[d]imidazol-5-yl)-4-methyl-7-(trifluoromethyl)-1,2,3,4-tetrahydroquinoxalin-6-yl)-N-(3-(4-(2,6-dioxopiperidin-3-yl)benzofuran-2-yl)prop-2-yn-1-yl)picolinamide] |
| 60 to 79 | 10 to 99 | Cn1c(=O)n(C)c2cc(N3CCCc4nc(-c5ccc(C(=O)NCC#Cc6ccc7occ(C89CC(C8)C(=O)NC9=O)c7c6)nc5)ncc43)ccc21 [Example A215, 5-(5-(1,3-dimethyl-2-oxo-2,3-dihydro-1H-benzo[d]imidazol-5-yl)-5,6,7,8-tetrahydropyrido[3,2-d]pyrimidin-2-yl)-N-(3-(3-(2,4-dioxo-3-azabicyclo[3.1.1]heptan-1-yl)benzofuran-5-yl)prop-2-yn-1-yl)picolinamide] |
| > 80 | 1 to 9.9 | Cn1cc(-c2ccc3c(c2)n(C)c(=O)n3C)c2cnc(-c3ccc(C(=O)NCC#Cc4cc5c(C6CCC(=O)NC6=O)nccc5o4)nc3)cc2c1=O (stereo not shown) [Example A230, 5-(8-(1,3-dimethyl-2-oxo-2,3-dihydro-1H-benzo[d]imidazol-5-yl)-6-methyl-5-oxo-5,6-dihydro-2,6-naphthyridin-3-yl)-N-(3-(4-(2,6-dioxopiperidin-3-yl)furo[3,2-c]pyridin-2-yl)prop-2-yn-1-yl)picolinamide] |
| > 80 | 1 to 9.9 | CC(C)c1cc(N2CCCc3cc(-c4ccc(C(=O)NCC#Cc5ccc6occ(C7CCC(=O)NC7=O)c6c5)nc4)c(C(F)F)cc32)cc2c1n(C)c(=O)n2C (stereo not shown) [Example A151, 5-(7-(difluoromethyl)-1-(7-isopropyl-1,3-dimethyl-2-oxo-2,3-dihydro-1H-benzo[d]imidazol-5-yl)-1,2,3,4-tetrahydroquinolin-6-yl)-N-(3-(3-(2,6-dioxopiperidin-3-yl)benzofuran-5-yl)prop-2-yn-1-yl)picolinamide] |
| < 20 | > 1000 | CC(C)c1nc(N2CCCc3nc(-c4ccc(C(=O)NCC#Cc5ccc6occ(C7CCC(=O)NC7=O)c6c5)nc4)ncc32)cc2c1n(C)c(=O)n2C (stereo not shown) [Example A76, N-(3-(3-(2,6-dioxopiperidin-3-yl)benzofuran-5-yl)prop-2-yn-1-yl)-5-(5-(4-isopropyl-1,3-dimethyl-2-oxo-2,3-dihydro-1H-imidazo[4,5-c]pyridin-6-yl)-5,6,7,8-tetrahydropyrido[3,2-d]pyrimidin-2-yl)picolinamide] |
| > 80 | 1 to 9.9 | Cc1cc(-c2ncc3c(n2)CCCN3c2cc(C)c3c(c2)n(C)c(=O)n3C)cnc1C(=O)NCC#Cc1cc2c(C3CCC(=O)NC3=O)cccc2o1 (stereo not shown) [Example A227, N-(3-(4-(2,6-dioxo-piperidin-3-yl)benzofuran-2-yl)prop-2-yn-1-yl)-3-methyl-5-(5-(1,3,7-trimethyl-2-oxo-2,3-dihydro-1H-benzo [d]imidazol-5-yl)-5,6,7,8-tetrahydro-pyrido[3,2-d]pyrimidin-2-yl)picolinamide] |
| < 20 | > 1000 | CC(C)c1cc(-c2cccc3cc(-c4ccc(C(=O)NCC#Cc5nc6c(C7CCC(=O)NC7=O)cccc6n5C)nc4)ncc23)cc2c1n(C)c(=O)n2C (stereo not shown) [Example A186, N-(3-(4-(2,6-dioxo-piperidin-3-yl)-1-methyl-1H-benzo[d]imidazol-2-yl)prop-2-yn-1-yl)-5-(8-(7-iso-propyl-1,3-dimethyl-2-oxo-2,3-dihydro-1H-benzo[d]imidazol-5-yl)isoquinolin-3-yl)picolinamide] |
